The values below come from US10889581B2, “Cyclopropyl fused thiazine derivatives as beta-secretase inhibitors and methods of use” (AMGEN INC., priority 2016, dated 2021).

One series has as its target Recombinant CatD (Homo sapiens (Human), UniProt P07339). In words: In vitro enzymatic Cathepsin D (CatD) FRET assay. The format is biochemical. The following applies: pH 3.5, read-out: Cat D Enzyme IC50.
The target of series [1] is T1, BACE1 (Homo sapiens (Human), UniProt P56817). The series can be described thus: In vitro BACE1 cell-based assay (Aβ40 in conditioned medium of cells stably expressing APP, HTRF).
Target sequence in this assay (P56817 46-501, species assumed): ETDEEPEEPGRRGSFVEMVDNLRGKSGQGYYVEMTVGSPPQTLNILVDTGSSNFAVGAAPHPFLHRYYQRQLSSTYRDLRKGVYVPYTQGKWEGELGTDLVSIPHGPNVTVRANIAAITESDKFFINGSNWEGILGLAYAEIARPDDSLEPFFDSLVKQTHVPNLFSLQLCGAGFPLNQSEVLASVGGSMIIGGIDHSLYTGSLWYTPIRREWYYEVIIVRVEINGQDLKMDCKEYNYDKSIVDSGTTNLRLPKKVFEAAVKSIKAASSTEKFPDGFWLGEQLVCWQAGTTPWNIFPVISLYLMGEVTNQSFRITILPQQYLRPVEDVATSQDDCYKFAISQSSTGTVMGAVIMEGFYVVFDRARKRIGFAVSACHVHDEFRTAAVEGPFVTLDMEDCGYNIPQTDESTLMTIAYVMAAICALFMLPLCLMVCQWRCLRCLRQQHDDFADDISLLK
In series [2] the target is T1, BACE1. In words: In vitro enzymatic BACE1 FRET assay. Format: biochemical. The following applies: pH 4.5, read-out: BACE1 Enzyme IC50.
Target sequence in this assay (P56817 46-501): as the sequence (P56817 46-501, species assumed) above
The target of a further series is human recombinant BACE2 (Homo sapiens (Human), UniProt Q9Y5Z0). In words: In vitro enzymatic BACE2 FRET assay. Format: biochemical. The following applies: pH 4.5, read-out: BACE2 Enzyme IC50.
Sequence of human recombinant BACE2 (Q9Y5Z0 63-518): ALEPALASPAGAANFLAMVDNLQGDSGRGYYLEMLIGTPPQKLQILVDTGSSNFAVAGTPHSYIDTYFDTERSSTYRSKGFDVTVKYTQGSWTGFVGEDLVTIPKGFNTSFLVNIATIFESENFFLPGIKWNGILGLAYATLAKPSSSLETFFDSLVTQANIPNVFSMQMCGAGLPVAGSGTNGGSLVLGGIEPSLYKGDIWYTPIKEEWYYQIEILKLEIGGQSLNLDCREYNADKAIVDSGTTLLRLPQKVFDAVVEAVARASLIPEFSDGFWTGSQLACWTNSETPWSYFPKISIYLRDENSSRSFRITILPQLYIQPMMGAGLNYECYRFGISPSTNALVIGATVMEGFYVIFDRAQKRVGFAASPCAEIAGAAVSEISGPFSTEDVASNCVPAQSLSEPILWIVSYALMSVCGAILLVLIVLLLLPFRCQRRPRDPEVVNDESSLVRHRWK
For series [3] the following is noted: cited from earlier work.
The test system of series [4] is Aβ peptide. The following applies: nonhuman primates; cited from earlier work.
Series [5] relates to Aβ peptide. The following applies: oral dose of 95 mg once daily; cited from earlier work.
Series [6] relates to pigment epithelium of the rat's eye. To be noted: higher compound dose given for three months; cited from earlier work.
Series [7] relates to Aβ peptide. The following applies: sustained and dose-dependent; cited from earlier work.

Sequence of Recombinant CatD (P07339 65-412): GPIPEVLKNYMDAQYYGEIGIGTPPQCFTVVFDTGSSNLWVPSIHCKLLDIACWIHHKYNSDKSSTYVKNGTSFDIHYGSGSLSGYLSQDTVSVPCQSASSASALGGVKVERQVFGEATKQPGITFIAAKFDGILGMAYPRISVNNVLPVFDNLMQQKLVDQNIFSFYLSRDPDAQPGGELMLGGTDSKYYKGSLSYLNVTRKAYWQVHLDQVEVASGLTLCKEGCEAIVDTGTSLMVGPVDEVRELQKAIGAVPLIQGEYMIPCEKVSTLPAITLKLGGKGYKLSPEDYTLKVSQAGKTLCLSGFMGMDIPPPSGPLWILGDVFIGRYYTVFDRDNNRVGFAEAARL

As to `NC1=N[C@](CF)(c2cc(C#Cc3cc(Cl)ccn3)ccc2F)[C@@H]2C[C@]2(CF)S1` [Example 138, (1S,5S,6S)-5-(5-((4-chloropyridin-2-yl)ethynyl)-2-fluorophenyl)-1,5-bis(fluoromethyl)-2-thia-4-azabicyclo[4.1.0]hept-3-en-3-amine], the IC50 on Recombinant CatD stood at 903000 nM; on BACE1 [1] it was 4850 nM; at BACE1 [2] it was 1120 nM; at human recombinant BACE2, 77 nM.

Regarding `C[C@H]1OC[C@]2(c3cc(NC(=O)c4cnc(C(F)F)cn4)ccc3F)N=C(N)SC[C@H]12` [Example E2609], the clinical safety concerns result in [3] (repeated doses up to 200 mg, phase I clinical trial) is reported as “did not show clinical significant safety concerns”. Besides, in the series with Aβ peptide [4], the “reduction in Aβ peptide levels in the CSF and plasma” value is recorded as “significant reduction”.

On to `C[C@@]1(c2cc(NC(=O)c3ccc(C#N)cn3)ccc2F)C=CSC(N)=N1` [JNJ-54861911], for which the “Aβ peptide reduction in CSF” value in the series on Aβ peptide [5] is “up to 95%”.

For the compound `C[C@@]1(c2cc(-c3cncnc3)c(F)cc2F)CCSC(N)=N1` [LY 2811376], the eye toxicity finding entry in [6] was “damaged the pigment epithelium of the rat's eye”.

On to `CN1C(=N)N[C@](C)(c2cc(NC(=O)c3ccc(F)cn3)ccc2F)CS1(=O)=O` [MK-8931], for which, in series [3] (phase I clinical trials), the safety profile result was “excellent safety profile with no immediately noticeable side effects”. The “CSF Aβ peptide concentrations” value with Aβ peptide [7] is on record as “significantly reduced”.
